Data on one compound can be found in patent US7795252B2, “Rapamycin analogues and the uses thereof in the treatment of neurological, proliferative, and inflammatory disorders” (Pfizer Inc., priority 2004, dated 2010).

In assay [1] the test system is Dissociated cortical neuron cultures. In words: cortical neuron assay (neurite outgrowth). It counts as cell-based. As to conditions: Cortical neurone, rat E15 cortical neurons, compound for 72 hours, read-out: EC50 in cortical neuron assays. Here is the method:
Dissociated cortical neuron cultures were prepared as previously described (Pong et al., 2001). Briefly, embryonic day 15 rat fetuses were collected and dissected in ice-cold PBS. Dissected cortices were pooled together and transferred to an enzymatic dissociation medium containing papain. After 30 minutes, the tissue was mechanically triturated with a fire-polished glass Pasteur pipette. Single-cell suspensions in complete media were seeded on poly-L-ornithine and laminin coated 96-well plates. After 24 hours, cultures were treated with various concentrations of compound for 72 hours. The cultures were then fixed and stained with an anti-tubulin primary antibody (TUJ-1) and a fluorescent-tagged secondary antibody. Neurite outgrowth was determined by using the Enhanced Neurite Outgrowth (ENO) algorithm with the Cellomics ArrayScan and expressed as average neurite length or total neurite length per cell.

For assay [2], the system named is prostate tumor cell line LNCap (PTEN-mutated). In words: cell-based proliferation assay (MTS), LNCap. As to conditions: Homo sapiens. Here is the method: (§1) In this assay, a cell-based proliferation assay was performed to evaluate the compounds of the invention in inhibiting growth of cells including the breast tumor cell line MDA468 (PTEN-mutated) ATCC No. HTB-132 or prostate tumor cell line LNCap (PTEN-mutated) ATCC CRL-1740. • (i) On day one, cells were plated in 96-well culture plates. • (ii) On day two, compounds were added to cells at a predetermined concentration. • (iii) On day five, cell proliferation was measured by standard MTS assay protocol as described in S A O'Toole et al., Cancer Detection and Prevention, 27(1), 2003. Results were recorded by A490 absorbance using a 96-well format platereader. • (iv) The MTS results (A490 units) from compound-treated wells were then calculated as % control growth relative to the control (untreated) wells on the same culture plate.

Assay [3] has as its system Spinal cord neuron cultures. In words: spinal cord neuron assay. To be noted: rat E15 spinal cord neurons, compound for 72 h, read-out: EC50 in spinal cord neuron assays. It counts as cell-based. On the procedure:
Spinal cord neuron cultures were prepared from embryonic day 15 (E15) rat embryos (Sprague-Dawley, Charles River Laboratories, Wilmington, Mass.). The embryos were collected and their spinal cords were removed in ice-cold phosphate-buffered saline (PBS) without Ca^2+ and Mg^2+. Dissected pieces of spinal cord tissue were pooled together and transferred to an enzymatic dissociation media containing 20 IU/mL papain in Earle's balanced salt solution (Worthington Biochemical, Freehold, N.J.) and incubated for 30 minutes at 37° C. After enzymatic dissociation, the papain solution was aspirated and the tissue mechanically triturated with a fire-polished Pasteur pipette in complete media [Neurobasal Medium with B-27 supplement (Gibco, Grand Island, N.Y.), 100 IU/mL penicillin, 100 μg/mL streptomycin, 3.3 μg/mL aphidicolin, 0.5 mM glutamate] containing 2,000 IU/mL DNase and 10-mg/mL ovomucoid protease inhibitor. Single-cell suspensions in complete media were plated on pre-coated poly-L-ornithine/laminin 96-well plates (Becton-Dickinson, Bedford, Mass.) at a density of 1.0×10^4 cells/well. Spinal cord neurons were maintained for 24 h then exposed to vehicle or various concentrations of compound for 72 h.

Assay [4] deals with human CD4+ T cells. In words: PMA/ionomycin activation assay. As to conditions: CD4+ T cells stimulated with PMA and ionomycin, tritiated thymidine incorporation, read-out: EC50, inhibition of proliferation. The class given is cell-based. Here is the method: (§2) In the following assays, human CD4+ T cells were purified by negative selection from peripheral blood lymphocytes using RosetteSep as per manufacture's instructions (StemCell Technologies, Inc. Vancouver, British Columbia).
Proliferation of the compounds was determined using this assay. CD4+ T cells (5×10^5 cells/well) were plated in flat bottomed 96 well microtiter plates in RPMI, 10% fetal calf serum, 2 mM glutamine media and stimulated with PMA (10 ng/mL) and ionomycin (200 ng/mL) in the presence of increasing concentration of compound. Seventy-two hours after activation, 100 μL of culture media was collected for IL-2 determination, an additional 100 μL fresh media was added to each well and cultures labeled with tritiated thymidine (1 μCi/well) for 6 hours. Cultures were harvested and tritiated thymidine incorporation (count per minute, CPM) assessed using a Trilux (Perkin Elmer, Shelton, Conn.). IL-2 production was determined using an ELISA as per manufacture's instructions (R&D Systems, Minneapolis, Minn.).

In assay [5] the test system is human CD4+ T cells. In words: Anti-CD3/-CD28 stimulation and IL-2 re-stimulation assay. It counts as cell-based. On the procedure: as §2
Tosyl-activated magnetic microspheres (Dynal, Great Neck, N.Y.) were coated with anti-CD3 Ab (1 μg/10^7 microspheres), and anti-CD28Ab (0.5 μg/10^7 microspheres) as described in Blair et al. J. Immunol., 160:12, 1998. Murine IgG was used to saturate the binding capacity of the microspheres (total protein=5 μg/10^7 microspheres). Protein-coated microspheres were added to purified CD4+ T cells (2×10^6 cells/mL, ratio 1 bead: 1 cell) and activated for 72 hours in RPMI, 10% fetal calf serum, 2 mM glutamine media. Cells were harvested, washed, and cultured overnight in fresh media and re-stimulated with IL-2 as described in Bennett et al., J. Immunol. 170:711, 2003. Briefly, overnight rested cells were recounted, plated (10^5 cells/well) in flat-bottomed 96 well microtiter plates and stimulated with 1 ng/mL human IL-2 (R&D Systems, Minneapolis, Minn.) in the presence of increasing concentrations of compound. Seventy-two hours after culture re-stimulation, plates were pulsed with 1 μCi/well tritiated thymidine and incubated for a 6-16 hour period.

Assay [6] has as its system breast tumor cell line MDA468 (PTEN-mutated). In words: cell-based proliferation assay (MTS), MDA468. On the procedure:
as §1

Assay [7] relates to Mesencephalic dopaminergic neuron cultures. In words: dopaminergic (3H-dopamine) uptake assay after MPP+ exposure. It counts as cell-based. To be noted: Neuron, rat E15 mesencephalic dopaminergic neurons, read-out: EC50 in dopaminergic uptake assays. On the procedure:
Mesencephalic dopaminergic neuron cultures were prepared as described in Pong et al., J. Neurochem. 69: 986-994, 1997, which is incorporated herein by reference in its entirety. Embryonic day 15 (E15) rat fetuses were collected and dissected in ice-cold phosphate-buffered saline (PBS). The ventral piece of tissue compromising the mesencephalic dopaminergic region was dissected out. Dissected pieces of tissue were pooled together and transferred to an enzymatic dissociation medium containing 20 IU/mL papain in Earle's balanced salt solution (Worthington Biochemical, Freehold, N.J., USA) and incubated for 60 minutes at 37° C. After enzymatic dissociation, the papain solution was aspirated and the tissue mechanically triturated with a fire-polished glass Pasteur pipette in complete medium (equal volumes of minimum essential medium (MEM) and F-12 nutrient mixture (GibcoBRL) supplemented with 0.1 mg/mL apotransferrin and 2.5 μg/mL insulin) containing 2,000 IU/mL DNase and 10 mg/mL ovomucoid protease inhibitor.
For dopamine uptake experiments, single-cell suspensions in complete media were seeded on poly-L-ornithine and laminin coated 24-well plates. The cultures were maintained for seven days prior to experimentation. Cultures were pretreated with various concentrations of the compound for 24 hours, then exposed to 10 mM MPP+ for 1 hour. Following the 1 hour incubation, media was exchanged three times and fresh compound was added for an additional 48 hours.
After 48 hours growth of mesencephalic dopaminergic neuron cultures following MPP+ exposure, high-affinity 3H-dopamine uptake was performed using a modified method described by Prochiantz et al., Nature 293: 570-572, 1981, which is incorporated herein by reference. Cultures were washed with pre-warmed PBS containing 5.6 mM glucose and 1 mM ascorbic acid. Cultures were then incubated for 15 minutes at 37° C. with 50 nM 3H-dopamine (31 Ci/mmol, DuPont-NEN, Wilmington, Del., USA). The cultures were washed twice with buffer and lysed with 0.5 N NaOH. The lysate was transferred to a scintillation vial containing Ultima Gold scintillation cocktail and radioactivity was determined with a liquid scintillation counter. Alternatively, culture lysates can be washed twice with buffer, incubated for 2 hours at room temperature with Optiphase Supermix scintillation cocktail (Wallac Scintillation Products, Gaithersburg, Md., USA), and radioactivity measured with a liquid scintillation counter.

`CO[C@H]1C[C@@H]2CC[C@@H](C)[C@@](O)(O2)C(=O)C(=O)N2CCCC[C@H]2C(=O)O[C@H]([C@H](C)C[C@@H]2CC[C@@H](O)[C@H](OC)C2)CC(=O)[C@H](C)/C=C(\C)[C@@H](O)[C@@H](OC)C(=O)[C@H](C)C[C@H](C)[C@@H]2C=C[C@H](/C=C/1C)ON2c1ccccc1` [Example 1, 9,27-dihydroxy-3-{2-[4-hydroxy-3-methoxycyclohexyl]-1-methylethyl}-10,21-dimethoxy-6,8,12,14,20,26-hexamethyl-37-phenyl-4,9,10,12,13,14,15,18,21,22,23,24,25,26,27,32,33,34,34a-nonadecahydro-3H-23,27-epoxy-18,15-(epoxyimino)pyrido[2,1-c][1,4]oxazacyclohentriacontine-1,5,11,28,29(6H,31H)-pentone]: the EC50 in assay [1] is < 1 µM; in assay [3], < 1 µM; in assay [4] it was 0.2 to 4.9 µM; in assay [7], < 1 µM. Moreover, the half-inhibitory concentration (IC50) in assay [2] was < 0.01 µM; in assay [5] (CD4+ T cells activated with anti-CD3/anti-CD28, re-stimulated with 1 ng/mL human IL-2, read-out: IC50, inhibition of IL-2 production), < 1 µM; in assay [6] it was < 0.01 µM. For the same compound, the “IL-2 production compared with rapamycin and CCI-779” value in assay [5] (CD4+ T cells, IL-2 re-stimulation) is listed as “commensurate”.
